The compounds below were run on γ-secretase (assay: Cellular γ-secretase assay (inhibition of Aβ42 secretion)). Details: human neuroglioma H4 cells overexpressing human APP, 22 hrs incubation.
Format: cell-based
Experimental: Human neuroglioma H4 cells overexpressing human APP were plated at 30,000 cells/well/[…] in 96-well plates in IMDM media containing 10% FCS, […] Hygromycin B and incubated for 2 h at 37° C., 5% CO2 prior to adding test compounds.
Compounds for testing were dissolved in 100% Me2SO yielding in a 10 mM stock solution. Typically […] of these solutions were further diluted in 1000 μl of IMDM media (w/o FCS). Subsequent 1:1 dilutions gave a ten point dose response curve. 100 μl of each dilution was added to the cells in 96-well plates. Appropriate controls using vehicle only and reference compound were applied to this assay. The final concentration of Me2S0 was 0.4%.
After incubation for 22 hrs at 37° C., 5% CO2, 50 μl supernatant was transferred into round-bottom 96-well polypropylene plates for detection of Aβ42. 50 μl assay buffer (50 mM Tris/Cl, pH 7.4, 60 mM NaCl, 0.5% BSA, 1% TWEEN 20) was added to the wells followed by the addition of 100 μl of detection antibody (ruthenylated BAP15 0.0625 μg/ml in assay buffer). 50 μl of a premix of capture antibody (biotinylated 6E10 antibody, 1 μg/ml) and Steptavidin-coated magnetic beads (Dynal M-280, 0.125 mg/ml) were preincubated for 1 hr at room temperature before adding the assay plates. Assay plates were incubated on a shaker for 3 hrs at room temperature and finally read in the Bioveris M8 Analyser according to the manufacturer's instructions (Bioveris).
IC50 values for inhibition of Aβ42 secretion were calculated by nonlinear regression fit analysis using XLfit 4.0 software (IDBS).

Row | EC50 [nM] | SMILES
1 | 742 | COCc1cnc(-c2ccccc2)n2nc(Nc3ccc(-n4cnc(C)c4)c(OC)c3)nc12 [Example 27, [3-Methoxy-4-(4-methyl-imidazol-1-yl)-phenyl]-(8-methoxymethyl-5-phenyl-[1,2,4]triazolo[1,5-c]pyrimidin-2-yl)-amine]
2 | 1490 | COCc1cnc(C2CCCCC2)n2nc(Nc3ccc(-n4cnc(C)c4)c(OC)c3)nc12 [Example 28, (5-Cyclohexyl-8-methoxymethyl-[1,2,4]triazolo[1,5-c]pyrimidin-2-yl)-[3-methoxy-4-(4-methyl-imidazol-1-yl)-phenyl]-amine]
3 | 1270 | COc1cc(Nc2nc3c(CN4CCOCC4)cnc(-c4ccccc4)n3n2)ccc1-n1cnc(C)c1 [Example 29, [3-Methoxy-4-(4-methyl-imidazol-1-yl)-phenyl]-(8-morpholin-4-ylmethyl-5-phenyl-[1,2,4]triazolo[1,5-c]pyrimidin-2-yl)-amine]
4 | 247 | COc1cc(Nc2nc3cccc(N4CCOCC4)n3n2)ccc1-n1cnc(C)c1 [Example 30, [3-Methoxy-4-(4-methyl-imidazol-1-yl)-phenyl]-(5-morpholin-4-yl-[1,2,4]triazolo[1,5-a]pyridin-2-yl)-amine]
5 | 587 | COc1cc(Nc2nc3cccc(N4CCCCCC4)n3n2)ccc1-n1cnc(C)c1 [Example 31, (5-Azepan-1-yl-[1,2,4]triazolo[1,5-a]pyridin-2-yl)-[3-methoxy-4-(4-methyl-imidazol-1-yl)-phenyl]-amine]
6 | 864 | CCCc1ncc(CN2CCOCC2)c2nc(Nc3ccc(-n4cnc(C)c4)c(OC)c3)nn12 [Example 32, [3-Methoxy-4-(4-methyl-imidazol-1-yl)-phenyl]-(8-morpholin-4-ylmethyl-5-propyl-[1,2,4]triazolo[1,5-c]pyrimidin-2-yl)-amine]
7 | 556 | COc1cc(Nc2nc3cccc(N4CCCCC4)n3n2)ccc1-n1cnc(C)c1 [Example 33, [3-Methoxy-4-(4-methyl-imidazol-1-yl)-phenyl]-(5-piperidin-1-yl-[1,2,4]triazolo[1,5-a]pyridin-2-yl)-amine]
8 | 640 | CCN(CC)c1cccc2nc(Nc3ccc(-n4cnc(C)c4)c(OC)c3)nn12 [Example 34, N5,N5-Diethyl-N2-[3-methoxy-4-(4-methyl-imidazol-1-yl)-phenyl]-[1,2,4]triazolo[1,5-a]pyridine-2,5-diamine]
9 | 5930 | COc1cc(Nc2nc3nccc(-c4ccc(C#N)cc4)n3n2)ccc1-n1cnc(C)c1 [Example 35, 4-{2-[3-Methoxy-4-(4-methyl-imidazol-1-yl)-phenylamino]-[1,2,4]triazolo[1,5-a]pyrimidin-7-yl}-benzonitrile]
10 | 573 | COc1cc(Nc2nc3nccc(-c4ccc(C(F)(F)F)cc4)n3n2)ccc1-n1cnc(C)c1 [Example 36, [3-Methoxy-4-(4-methyl-imidazol-1-yl)-phenyl]-[7-(4-trifluoromethyl-phenyl)-[1,2,4]triazolo[1,5-a]pyrimidin-2-yl]-amine]
11 | 260 | COc1cc(Nc2nc3ncc(C#N)c(-c4ccccc4)n3n2)ccc1-n1cnc(C)c1 [Example 37, 2-[3-Methoxy-4-(4-methyl-imidazol-1-yl)-phenylamino]-7-phenyl-[1,2,4]triazolo[1,5-a]pyrimidine-6-carbonitrile]
12 | 578 | COc1cc(Nc2nc3ncc(C#N)c(-c4ccccc4Cl)n3n2)ccc1-n1cnc(C)c1 [Example 38, 7-(2-Chloro-phenyl)-2-[3-methoxy-4-(4-methyl-imidazol-1-yl)-phenylamino]-[1,2,4]triazolo[1,5-a]pyrimidine-6-carbonitrile]
13 | 145 | COc1cc(Nc2nc3ncc(C#N)c(-c4ccc(Cl)cc4)n3n2)ccc1-n1cnc(C)c1 [Example 39, 7-(4-Chloro-phenyl)-2-[3-methoxy-4-(4-methyl-imidazol-1-yl)-phenylamino]-[1,2,4]triazolo[1,5-a]pyrimidine-6-carbonitrile]
14 | 417 | COc1cc(Nc2nc3ncc(C#N)c(-c4cccc(C)c4)n3n2)ccc1-n1cnc(C)c1 [Example 40, 2-[3-Methoxy-4-(4-methyl-imidazol-1-yl)-phenylamino]-7-m-tolyl-[1,2,4]triazolo[1,5-a]pyrimidine-6-carbonitrile]
15 | 4310 | COc1cc(Nc2nc3nc(C(F)(F)F)cc(-c4cnccn4)n3n2)ccc1-n1cnc(C)c1 [Example 41, [3-Methoxy-4-(4-methyl-imidazol-1-yl)-phenyl]-(7-pyrazin-2-yl-5-trifluoromethyl-[1,2,4]triazolo[1,5-a]pyrimidin-2-yl)-amine]
16 | 1320 | COc1ccc2nc(Nc3ccc(-n4cnc(C)c4)c(OC)c3)nn2n1 [Example 42, [3-Methoxy-4-(4-methyl-imidazol-1-yl)-phenyl]-(6-methoxy-[1,2,4]triazolo[1,5-b]pyridazin-2-yl)-amine]
17 | 680 | COc1cc(Nc2nc3c(OCc4ccccc4)cccn3n2)ccc1-n1cnc(C)c1 [Example 43, (8-Benzyloxy-[1,2,4]triazolo[1,5-a]pyridin-2-yl)-[3-methoxy-4-(4-methyl-imidazol-1-yl)-phenyl]-amine]
18 | 1560 | COc1cc(Nc2nc3c(Cl)cc(Cl)cn3n2)ccc1-n1cnc(C)c1 [Example 44, (6,8-Dichloro-[1,2,4]triazolo[1,5-a]pyridin-2-yl)-[3-methoxy-4-(4-methyl-imidazol-1-yl)-phenyl]-amine]
19 | 1400 | COc1cc(Nc2nc3ccnc(-c4ccc(F)cc4)n3n2)ccc1-n1cnc(C)c1 [Example 45, [5-(4-Fluoro-phenyl)-[1,2,4]triazolo[1,5-c]pyrimidin-2-yl]-[3-methoxy-4-(4-methyl-imidazol-1-yl)-phenyl]-amine]
20 | 180 | COc1cc(Nc2nc3c(-c4ccc(F)cc4)cc(C)cn3n2)ccc1-n1cnc(C)c1 [Example 46, [8-(4-Fluoro-phenyl)-6-methyl-[1,2,4]triazolo[1,5-a]pyridin-2-yl]-[3-methoxy-4-(4-methyl-imidazol-1-yl)-phenyl]-amine]
21 | 1340 | COc1cc(Nc2nc3cc(C(F)(F)F)ccn3n2)ccc1-n1cnc(C)c1 [Example 47, [3-Methoxy-4-(4-methyl-imidazol-1-yl)-phenyl]-(7-trifluoromethyl-[1,2,4]triazolo[1,5-a]pyridin-2-yl)-amine]
22 | 4510 | COc1cc(Nc2nc3c(Cl)cc(C(F)(F)F)cn3n2)ccc1-n1cnc(C)c1 [Example 48, (8-Chloro-6-trifluoromethyl-[1,2,4]triazolo[1,5-a]pyridin-2-yl)-[3-methoxy-4-(4-methyl-imidazol-1-yl)-phenyl]-amine]
23 | 1350 | COc1cc(Nc2nc3c(C)cc(Cl)cn3n2)ccc1-n1cnc(C)c1 [Example 49, (6-Chloro-8-methyl-[1,2,4]triazolo[1,5-a]pyridin-2-yl)-[3-methoxy-4-(4-methyl-imidazol-1-yl)-phenyl]-amine]
24 | 400 | COc1cc(Nc2nc3ccc(C)c(C)n3n2)ccc1-n1cnc(C)c1 [Example 50, (5,6-Dimethyl-[1,2,4]triazolo[1,5-a]pyridin-2-yl)-[3-methoxy-4-(4-methyl-imidazol-1-yl)-phenyl]-amine]
25 | 120 | COc1cc(Nc2nc3c(-c4ccc(F)cc4)cccn3n2)ccc1-c1ccnc(C)c1 [Example 53, 8-(4-Fluorophenyl)-N-(3-methoxy-4-(2-methylpyridin-4-yl)phenyl)-[1,2,4]triazolo[1,5-a]pyridin-2-amine]
26 | 110 | COc1cc(Nc2nc3cccc(-c4ccc(F)cc4)n3n2)ccc1-c1ccnc(C)c1 [Example 54, 5-(4-Fluorophenyl)-N-(3-methoxy-4-(2-methylpyridin-4-yl)phenyl)-[1,2,4]triazolo[1,5-a]pyridin-2-amine]
27 | 431 | COc1cc(Nc2nc3n(n2)C(c2ccc(F)cc2)CN(S(C)(=O)=O)C3)ccc1-n1cnc(C)c1 (stereo not drawn) [Example 57, 5-(4-Fluorophenyl)-N-(3-methoxy-4-(4-methyl-1H-imidazol-1-yl)phenyl)-7-(methylsulfonyl)-5,6,7,8-tetrahydro-[1,2,4]triazolo[1,5-a]pyrazin-2-amine]
28 | 538 | COc1cc(Nc2nc3n(n2)C(c2ccc(F)cc2)CN(CC(F)(F)F)C3)ccc1-n1cnc(C)c1 (stereo not drawn) [Example 58, 5-(4-fluorophenyl)-N-(3-methoxy-4-(4-methyl-1H-imidazol-1-yl)phenyl)-7-(2,2,2-trifluoroethyl)-5,6,7,8-tetrahydro-[1,2,4]triazolo[1,5-a]pyrazin-2-amine]
29 | 590 | COc1cc(Nc2nc3n(n2)CCN(C(=O)C(C)C)C3c2ccc(F)cc2)ccc1-n1cnc(C)c1 (stereo not drawn) [Example 59, 1-(8-(4-Fluorophenyl)-2-(3-methoxy-4-(4-methyl-1H-imidazol-1-yl)phenylamino)-5,6-dihydro-[1,2,4]triazolo[1,5-a]pyrazin-7(8H)-yl)-2-methylpropan-1-one]
30 | 672 | COc1cc(Nc2nc3c(C)cnc(N4CCCC4)n3n2)ccc1-n1cnc(C)c1 [Example 60, [3-Methoxy-4-(4-methyl-imidazol-1-yl)-phenyl]-(8-methyl-5-pyrrolidin-1-yl-[1,2,4]triazolo[1,5-c]pyrimidin-2-yl)-amine]
